Measured values published in ChEMBL document CHEMBL1139099, “Novel trifluoroacetophenone derivatives as malonyl-CoA decarboxylase inhibitors” (Bioorg Med Chem Lett, 2007).

Biological target: T1, Malonyl-CoA decarboxylase, mitochondrial (Homo sapiens, UniProt O95822)
T1 sequence (O95822 whole entry): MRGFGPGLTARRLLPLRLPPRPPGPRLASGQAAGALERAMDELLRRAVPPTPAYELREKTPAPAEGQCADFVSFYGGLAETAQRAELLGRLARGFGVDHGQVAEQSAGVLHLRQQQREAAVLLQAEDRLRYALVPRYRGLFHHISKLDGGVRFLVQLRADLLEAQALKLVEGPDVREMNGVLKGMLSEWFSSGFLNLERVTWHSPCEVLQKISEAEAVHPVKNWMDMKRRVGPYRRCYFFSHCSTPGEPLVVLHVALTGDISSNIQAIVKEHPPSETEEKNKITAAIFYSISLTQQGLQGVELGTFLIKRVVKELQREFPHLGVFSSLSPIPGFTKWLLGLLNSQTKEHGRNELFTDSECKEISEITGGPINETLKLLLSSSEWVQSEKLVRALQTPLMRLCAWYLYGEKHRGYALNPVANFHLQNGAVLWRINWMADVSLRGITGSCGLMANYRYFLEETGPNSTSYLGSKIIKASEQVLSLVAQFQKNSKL
Experiment: Inhibition of MBP fused human MCD

O=C(NCC1CCCCC1)c1ccc(C(=O)C(F)(F)F)cc1
IC50: 2.3 µM
